Data reported in patent US9983218B2, “Indole and indoline derivatives and methods of use thereof” (AbbVie Inc., priority 2008, dated 2018).

Tested on: SK-N-SH human neuroblastoma cells
Assay: Serum deprivation/JC-1 mitochondrial membrane potential (MMP) assay
Assay type: cell-based
Conditions: Homo sapiens; for Emax: SK-N-SH, percent maximal intensity in JC-1 ratio normalized to 10 μM dimebolin, read-out: JC-1 max %; for EC50: SK-N-SH cells, serum deprivation ~18 hours, JC-1 ratio normalized to peak value for 10 μM dimebolin, single curve fit to mean data of n=2-3, read-out: EC50
Description: SK-N-SH human neuroblastoma cells obtained from American Type Culture Collection (Rockville, Md.) were maintained in the log phase of growth in Minimal Essential Media (MEM), 10% heat inactivated fetal calf serum and 100 units/mL antibiotic-antimycotic (AA). Cells were cultured and maintained in a humidified incubator at 37° C. under 5% CO2 and 95% air. Cells were trypsinized (0.25%) and subcultured every 3 days and used from 15-18 passages. All cell culture supplies were obtained from Invitrogen (Carlsbad, Calif.).
SK-N-SH cells were plated 2-3 days in advance at a concentration of 50,000 cells/well onto collagen coated black-walled 96 well plates (Becton-Dickinson, Bedford, Mass.) in a total volume of 200 μL. On day of experimental treatment, the media containing serum was aspirated from each well and rinsed once with MEM/1% AA without serum. The cells then were incubated overnight in 100 μL of MEM/1% AA (no serum) with and without dimebolin or novel chemical entities overnight for ˜18 hours. The following day, JC-1 dye (5,5′,6,6′-tetrachloro-1,1′,3,3′-tetraethylbenzimidazolcarbocyanide) was diluted 1:10 into MEM media according to the JC-1 Mitochondrial Membrane Potential Assay Kit: (Cayman Chemical Company, Ann Arbor, Mich.) and then 10 μL of the JC-1 dye solution was added to each well. The plates were centrifuged for 5 minutes at 400×g at room temperature followed by 35 minute incubation at 37° C. The plates were washed twice with 200[…] μL of provided Assay Buffer followed an addition of 100 μL of Assay Buffer to each well. The plates were read with an excitation and emission of 560 nm and 595 nM for red fluorescence and with an excitation and emission of 485 nm and 535 nM for green fluorescence to determine the final JC-1 value taking the red to green fluorescence ratio. This assay is based on change in mitochondrial membrane potential (MMP) using this lipophilic cationic dye, JC-1, by monitoring the changes in the ratio of red to green fluorescence as the MMP depolarizes. This change in MMP reflects the health of the cell with healthy, viable cells have a high JC-1 ratio and high MMP whereas apoptotic, unhealthy cells have a low JC-1 ratio or low MMP.
For the ability of compounds to reverse the stress due to serum deprivation and increase the JC-1 ratio, the percent maximal intensity in JC-1 ratio was normalized to that induced by the peak value for 10 μM dimebolin and plotted against the compound concentration to calculate EC50 values and to control for plate-to-plate variability. Concentration-response data were analyzed using GraphPad Prism (San Diego, Calif.); the EC50 values were derived from a single curve fit to the mean data of n=2-3, in duplicates.
All compounds were dissolved in dimethyl sulfoxide at 10 mM stock solutions and tested at a concentration that the dimethyl sulfoxide levels never exceeded 1%.

Compound | Emax | EC50
Cc1ccc(/C=C/n2c3c(c4cc(F)ccc42)CN2CCC3CC2)cn1 [Example 162, 9-fluoro-6-[(E)-2-(6-methylpyridin-3-yl)vinyl]-3,4,5,6-tetrahydro-1H-2,5-ethanoazepino[4,3-b]indole] | 205% | 17 µM
Fc1ccc(CCn2c3c(c4cc(F)ccc42)CN2CCC3CC2)cc1 [Example 163, 9-fluoro-6-[2-(4-fluorophenyl)ethyl]-3,4,5,6-tetrahydro-1H-2,5-ethanoazepino[4,3-b]indole] | 140% | 4.03 µM
Fc1ccc2c(c1)c1c(n2Cc2ccc(Cl)nc2)C2CCN(CC2)C1 [Example 164, 6-[(6-chloropyridin-3-yl)methyl]-9-fluoro-3,4,5,6-tetrahydro-1H-2,5-ethanoazepino[4,3-b]indole] | 197% | 4.95 µM
Fc1ccc2c(c1)c1c(n2Cc2coc(-c3ccccc3)n2)C2CCN(CC2)C1 [Example 173, 9-fluoro-6-[(2-phenyl-1,3-oxazol-4-yl)methyl]-3,4,5,6-tetrahydro-1H-2,5-ethanoazepino[4,3-b]indole] | 120% | 6.15 µM
Clc1ccc(CCn2c3c(c4cc(Br)ccc42)CN2CCC3CC2)cc1 [Example 174, 9-bromo-6-[2-(4-chlorophenyl)ethyl]-3,4,5,6-tetrahydro-1H-2,5-ethanoazepino[4,3-b]indole] | 105% | 5.48 µM
Cc1ccc(CCn2c3c(c4cc(OC(F)(F)F)ccc42)CN2CCC3CC2)cn1 [Example 178, 6-[2-(6-methylpyridin-3-yl)ethyl]-9-(trifluoromethoxy)-3,4,5,6-tetrahydro-1H-2,5-ethanoazepino[4,3-b]indole] | 192% | 4.17 µM
CC1CCC(CCn2c3c(c4cc(OC(F)(F)F)ccc42)CN2CCC3CC2)CN1 (stereo not shown) [Example 179, 6-[2-(6-methylpiperidin-3-yl)ethyl]-9-(trifluoromethoxy)-3,4,5,6-tetrahydro-1H-2,5-ethanoazepino[4,3-b]indole] | 116% | 5.69 µM
Cc1ccc(/C=C\n2c3c(c4cc(S(C)(=O)=O)ccc42)CN2CCC3CC2)cn1 [Example 181, 6-[(Z)-2-(6-methylpyridin-3-yl)vinyl]-9-(methylsulfonyl)-3,4,5,6-tetrahydro-1H-2,5-ethanoazepino[4,3-b]indole] | 103% | 7.89 µM
Cc1ccc(CCn2c3c(c4cc(S(C)(=O)=O)ccc42)CN2CCC3CC2)cn1 [Example 182, 6-[2-(6-methylpyridin-3-yl)ethyl]-9-(methylsulfonyl)-3,4,5,6-tetrahydro-1H-2,5-ethanoazepino[4,3-b]indole] | 60% | 9.28 µM
Fc1ccc2c(c1)c1c(n2Cc2ccc(C(F)(F)F)nc2)C2CCN(CC2)C1 [Example 183, 9-fluoro-6-{[6-(trifluoromethyl)pyridin-3-yl]methyl}-3,4,5,6-tetrahydro-1H-2,5-ethanoazepino[4,3-b]indole] | 172% | 8.97 µM
Fc1ccc2c(c1)c1c(n2Cc2ccccn2)C2CCN(CC2)C1 [Example 184, 9-fluoro-6-(pyridin-2-ylmethyl)-3,4,5,6-tetrahydro-1H-2,5-ethanoazepino[4,3-b]indole] | 175% | 10.7 µM
Fc1ccc2c(c1)c1c(n2Cc2cccnc2)C2CCN(CC2)C1 [Example 185, 9-fluoro-6-(pyridin-3-ylmethyl)-3,4,5,6-tetrahydro-1H-2,5-ethanoazepino[4,3-b]indole] | 184% | 8.58 µM
Fc1ccc2c(c1)c1c(n2Cc2ccncc2)C2CCN(CC2)C1 [Example 186, 9-fluoro-6-(pyridin-4-ylmethyl)-3,4,5,6-tetrahydro-1H-2,5-ethanoazepino[4,3-b]indole] | 93% | 14.6 µM
c1ccc(Cn2c3c(c4ccccc42)CN2CCC3CC2)nc1 [Example 187, 6-[(pyridin-2-yl)methyl]-3,4,5,6-tetrahydro-1H-2,5-ethanoazepino[4,3-b]indole] | 110% | 9.37 µM
